Laboratory results taken from paper PMC9609429 (Pharmaceuticals, 2022).

Key:
[1] = molecular target: α2-adrenoceptor; assay: α2-adrenoceptor radioligand binding assay ([3H]-clonidine, rat cerebral cortex)
Description: The α1-, α2-, and β1-adrenoceptor radioligand binding assay was carried out on the rat cerebral cortex. […] The brains were homogenized using ULTRA-TURRAX homogenizer in 10 mL of an ice-cold 50 mM Tris–HCl buffer (pH 7.6). Homogenates were centrifuged at 20,000× g for 20 min (0–4 °C). Next, the cell pellet was resuspended in the Tris–HCl buffer and centrifuged again. Radioligand binding assays were performed in plates (MultiScreen/Millipore). The final incubation mixture (volume 300 μL) consisted of 240 μL of the tissue suspension, 30 μL of radioligand solution, and 30 μL of the buffer containing 7–8 concentrations of the tested compound. […] The incubation was terminated by rapid filtration through Whatman GF/C filters using a vacuum manifold (Millipore). The filters were then washed twice with the assay buffer and placed in scintillation vials with a liquid scintillation cocktail. […] All the assays were made in duplicates and the inhibitory constants (Ki) were estimated.

[2] = test system: 5-HT1A receptors; parameters: method as in PMID 34451841; conditions: previous studies; cited from earlier work
[3] = test system: adrenaline-induced arrhythmia in rats; assay: Prophylactic antiarrhythmic activity in adrenaline-induced arrhythmia; format: in vivo, rat
Description: The experiment was carried out according to the method described by Szekeres and Papp. Normotensive rats were anesthetized with thiopental (75 mg/kg ip). Adrenaline was administered at the dose of 20 µg/kg to induce heart rhythm disturbances. The studied compound was injected intraperitoneally 45 min before the arrhythmogen. The electrocardiogram (ECG) was recorded during the first 2 min and in the 5th, 10th, and 15th min after the adrenaline injection. The criterion of prophylactic antiarrhythmic activity was the lack of extrasystoles and inhibition of cardiac arrhythmia in comparison with the control group. The ED50 (a dose producing a 50% inhibition of ventricular contractions) was determined by computer log-probit analysis according to Litchfield and Wilcoxon.

[4] = test system: mice; parameters: method as in PMID 34451841; conditions: previous studies; cited from earlier work
[5] = test system: normotensive rats; assay: Influence on blood pressure in normotensive rats; format: in vivo, rat
Description: Normotensive rats were anesthetized with thiopental (75 mg/kg ip). The right carotid artery was cannulated with a polyethylene tube filled with heparin solution to allow pressure measurements, using a Datamax apparatus (Columbus Instruments, Columbus, OH, USA). The tested compound was administered intraperitoneally after 15 min of stabilization period and its effect on blood pressure was measured.

[6] = test system: D2 receptors; parameters: method as in PMID 34451841; conditions: previous studies; cited from earlier work
[7] = test system: α1-adrenergic receptors; assay: Influence on blood vasopressor response to adrenaline, noradrenaline and methoxamine in rats; format: in vivo; conditions: rat, 1.25 mg/kg iv, 5 min after administration
Description: To establish agonistic or antagonistic toward α1-adrenergic receptors, we studied the influence of the studied compound on the pressor response to adrenaline (2 µg/kg), noradrenaline (2 µg/kg), and methoxamine (150 µg/kg). Normotensive rats were anesthetized with thiopental (75 mg/kg ip). The right carotid artery was cannulated with a polyethylene tube filled with heparin solution to allow pressure measurements, using a Datamax apparatus (Columbus Instruments, Columbus, OH, USA). The experiment was carried out after 15 min of the stabilization period. The pressor response to adrenaline, noradrenaline, and methoxamine was measured before (control) and 5 min after the administration of the tested compound.

[8] = 1.25 mg/kg ip, from 5 min after injection

CCC(CN1CCN(c2ccccc2OC)CC1)NCCCOc1c(C)cccc1C.Cl.Cl (stereo not drawn) [HBK-10, N-(3-(2,6-dimethylphenoxy)propyl)-1-(4-(2-methoxyphenyl)piperazin-1-yl)butan-2-amine dihydrochloride]
Adrenergic Receptors—pKi α2 ([1]; rat cortex tissue, [3H]-clonidine): 5.72 | affinity towards α2-adrenoceptor lower compared with the α1 receptor ([1]; rat cortex, α1 vs α2): over 600 fold | properties at 5-HT1A receptors [2]: antagonistic properties | ED50 lower than for carvedilol ([3]; HBK-10 ip vs carvedilol iv): ~3 fold | Extrasystoles (%) ([3]; rat, 0.0625 mg/kg ip 45 min before adrenaline 20 μg/kg iv): 83.3% | Extrasystoles (%) ([3]; rat, 0.125 mg/kg ip 45 min before adrenaline 20 μg/kg iv): 50% | Extrasystoles (%) ([3]; rat, 0.25 mg/kg ip 45 min before adrenaline 20 μg/kg iv): 16.7% | ED50 ([3]; rat, ip 45 min before adrenaline 20 μg/kg iv, read-out: ED50 (extrasystoles caused by adrenaline)): 0.125 mg/kg | antidepressant-like effect [4]: antidepressant-like effect | effect on diastolic blood pressure ([5]; 0.625 mg/kg ip): did not affect | effect on systolic blood pressure ([5]; 0.625 mg/kg ip): did not affect | reduction of diastolic blood pressure [5, 8]: 12.5–18.3% | reduction of systolic blood pressure [5, 8]: 11.2–18.3% | dose reducing blood pressure relative to median effective dose in adrenaline-induced model ([5]; single ip administration): 10 fold | properties at D2 receptors [6]: antagonistic properties | attenuation of adrenaline pressor response ([7]; adrenaline 2 μg/kg): 77.2% | attenuation of methoxamine pressor response ([7]; methoxamine 150 μg/kg): 77.4% | attenuation of noradrenaline pressor response ([7]; noradrenaline 2 μg/kg): 32.5%
